Laboratory results published in patent publication US20020026053A1, “Novel 3-(substituted) -2- indolinones compounds and use thereof as inhibitors of protein kinase activity” (priority 1997, published 2002).

Columns and labels:
PDGF-R = PDGF-R Assay (cellular ELISA, U1242 cells); type: cell-based; design: concentration or dose not given beside the values
How it was run: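 U1242 cells seeded in 0.5% serum, serum-starved, then exposed to compound for 2 hr at 37°C before 5–10 min ligand stimulation and lysis in HNTG. Lysate captured on receptor-antibody-coated plates; phosphotyrosine detected with polyclonal anti-pTyr, goat anti-rabbit IgG and ABTS/H2O2, A410 (ref 630 nm), versus untreated cells.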

FLK-1 receptor = assay: FLK-1 Assay (cellular/catalytic ELISA, VEGF-stimulated phosphotyrosine); type: cell-based; design: concentration or dose not given beside the values
How it was run: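 NIH3T3 C7#3 cells engineered to express Flk-1 were serum-starved overnight (0.1% FBS), then exposed to compound for 2 h at 37 °C (final dilution 1:200, 0.5% DMSO) before VEGF stimulation. Lysates captured on anti-FLK-1 antiserum plates; phosphotyrosine detected by UB40 antibody/POD-ABTS ELISA versus untreated controls.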

| SMILES | PDGF Kinase % Inhibition (P.119) (PDGF-R) | Flk Kinase % Inhibition (P.110) (FLK-1 receptor) |
| --- | --- | --- |
| Cc1c(Br)ccc2c1C(=Cc1cc(Cl)ccc1O)C(=O)N2 [10734/C04] | 24.5% | −37.6% |
| CCN(CC)c1ccc(C=C2C(=O)Nc3ccc(Br)c(C)c32)c(O)c1 [10734/C05] | 3.8% | −10.3% |
| Cc1c(Br)ccc2c1C(=Cc1ccc([N+](=O)[O-])cc1)C(=O)N2 [10734/C06] | −0.2% | −1.7% |
| Cc1c(Br)ccc2c1C(=Cc1cc(Br)cc(Br)c1O)C(=O)N2 [10734/C07] | 32.0% | −2.7% |
| Cc1c(Br)ccc2c1C(=Cc1cccc(F)c1O)C(=O)N2 [10734/C08] | 5.5% | −34.2% |
| Cc1c(Br)ccc2c1C(=Cc1ccc(O)c(Br)c1)C(=O)N2 [10734/C09] | 11.3% | −13.3% |
| Cc1c(Br)ccc2c1C(=Cc1ccc(C(C)(C)C)cc1)C(=O)N2 [10734/C10] | 17.4% | 10.1% |
| Cc1c(Br)ccc2c1C(=Cc1ccc(Br)s1)C(=O)N2 [10734/C11] | 9.1% | 6.3% |
| CCOc1cccc(C=C2C(=O)Nc3ccc(S(=O)(=O)NC)cc32)c1O [10734/D02] | 6.4% | −11.5% |
| CNS(=O)(=O)c1ccc2c(c1)C(=Cc1cc(Cl)cc(Cl)c1O)C(=O)N2 [10734/D03] | 24.1% | 17.4% |
| CNS(=O)(=O)c1ccc2c(c1)C(=Cc1cc(Cl)ccc1O)C(=O)N2 [10734/D04] | 13.5% | 6.1% |
| CCN(CC)c1ccc(C=C2C(=O)Nc3ccc(S(=O)(=O)NC)cc32)c(O)c1 [10734/D05] | 8.2% | 2.4% |
| CNS(=O)(=O)c1ccc2c(c1)C(=Cc1ccc([N+](=O)[O-])cc1)C(=O)N2 [10734/D06] | −9.1% | 0.0% |
| CNS(=O)(=O)c1ccc2c(c1)C(=Cc1cc(Br)cc(Br)c1O)C(=O)N2 [10734/D07] | 28.1% | 14.7% |
| CNS(=O)(=O)c1ccc2c(c1)C(=Cc1cccc(F)c1O)C(=O)N2 [10734/D08] | 2.0% | 2.5% |
| CNS(=O)(=O)c1ccc2c(c1)C(=Cc1ccc(O)c(Br)c1)C(=O)N2 [10734/D09] | 42.2% | −11.6% |
| CNS(=O)(=O)c1ccc2c(c1)C(=Cc1ccc(C(C)(C)C)cc1)C(=O)N2 [10734/D10] | 9.9% | 11.1% |
| CNS(=O)(=O)c1ccc2c(c1)C(=Cc1ccc(Br)s1)C(=O)N2 [10734/D11] | 17.0% | 9.8% |
| CCOc1cccc(C=C2C(=O)Nc3ccc(S(=O)(=O)Nc4ccc(C(F)(F)F)cc4)cc32)c1O [10734/E02] | 50.1% | 7.9% |
| O=C1Nc2ccc(S(=O)(=O)Nc3ccc(C(F)(F)F)cc3)cc2C1=Cc1cc(Cl)cc(Cl)c1O [10734/E03] | 27.2% | 26.9% |
| O=C1Nc2ccc(S(=O)(=O)Nc3ccc(C(F)(F)F)cc3)cc2C1=Cc1cc(Cl)ccc1O [10734/E04] | 26.7% | 10.7% |
| CCN(CC)c1ccc(C=C2C(=O)Nc3ccc(S(=O)(=O)Nc4ccc(C(F)(F)F)cc4)cc32)c(O)c1 [10734/E05] | 17.9% | 10.6% |
| O=C1Nc2ccc(S(=O)(=O)Nc3ccc(C(F)(F)F)cc3)cc2C1=Cc1ccc([N+](=O)[O-])cc1 [10734/E06] | 13.5% | 28.4% |
| O=C1Nc2ccc(S(=O)(=O)Nc3ccc(C(F)(F)F)cc3)cc2C1=Cc1cc(Br)cc(Br)c1O [10734/E07] | 8.2% | 27.9% |
| O=C1Nc2ccc(S(=O)(=O)Nc3ccc(C(F)(F)F)cc3)cc2C1=Cc1cccc(F)c1O [10734/E08] | 13.0% | 26.6% |
| O=C1Nc2ccc(S(=O)(=O)Nc3ccc(C(F)(F)F)cc3)cc2C1=Cc1ccc(O)c(Br)c1 [10734/E09] | 1.1% | 8.0% |
| CC(C)(C)c1ccc(C=C2C(=O)Nc3ccc(S(=O)(=O)Nc4ccc(C(F)(F)F)cc4)cc32)cc1 [10734/E10] | 29.8% | 18.5% |
| O=C1Nc2ccc(S(=O)(=O)Nc3ccc(C(F)(F)F)cc3)cc2C1=Cc1ccc(Br)s1 [10734/E11] | 16.1% | 19.2% |
| CCOc1cccc(C=C2C(=O)Nc3ccc(S(=O)(=O)N4CCOCC4)cc32)c1O [10734/F02] | 10.4% | 6.2% |
| O=C1Nc2ccc(S(=O)(=O)N3CCOCC3)cc2C1=Cc1cc(Cl)cc(Cl)c1O [10734/F03] | −24.1% | 4.2% |
